Test results taken from the supplement of paper PMC13380429.

Assays:
[1] = tested on: A549-ACE2 infected with SARS-CoV-2; experiment: cell count relative to DMSO; higher = less toxic; conditions: 24 h
Caco-2 [2] = experiment: cell viability relative to DMSO; higher = less toxic; conditions: 72 h
Calu-3 [3] = experiment: as above; conditions: 72 h
HepG2 [4] = experiment: as above; conditions: 72 h
U2OS [5] = experiment: as above; conditions: 72 h
Vero E6 [6] = experiment: as above; conditions: 72 h
[7] = tested on: A549-ACE2 infected with SARS-CoV-2; experiment: SARS-CoV-2 infection rate relative to DMSO; higher = more infection; conditions: 24 h
A549-ACE2 [8] = experiment: phospholipidosis EC50; higher = less potent phospholipidosis inducer
A549-ACE2 [9] = experiment: drug-induced phospholipidosis relative to tamoxifen; higher = more phospholipidosis
[10] = tested on: A549-ACE2 infected with SARS-CoV-2; experiment: morphology score (similarity to uninfected cells); higher = more like uninfected cells; conditions: 24 h
Caco-2 [11] = experiment: relative viability EC50 (midpoint between 100% and the lowest measured viability); higher = less toxic; conditions: 72 h
Calu-3 [12] = experiment: as above; conditions: 72 h
U2OS [13] = experiment: as above; conditions: 72 h
Vero E6 [14] = experiment: as above; conditions: 72 h
Caco-2 [15] = experiment: drug sensitivity score (DSS) for viability; higher = more toxic; extreme values may be limits of the assay; conditions: 72 h
Calu-3 [16] = experiment: as above; conditions: 72 h
HepG2 [17] = experiment: as above; conditions: 72 h
U2OS [18] = experiment: as above; conditions: 72 h
Vero E6 [19] = experiment: as above; conditions: 72 h
HepG2 [20] = experiment: relative viability EC50 (midpoint between 100% and the lowest measured viability); higher = less toxic; conditions: 72 h

OCc1cc(C(O)CNCCCCCCOCCCCc2ccccc2)ccc1O (stereo unspecified) [salmeterol]
Conditions | SARS-CoV-2 infection rate [%] | cell count [%] | cell viability [%] | morphology score | phospholipidosis EC50 [µM]
A549-ACE2 [8], 24 h | – | – | – | – | 5.09
A549-ACE2 [8], 48 h | – | – | – | – | 7.38
A549-ACE2 [8], 72 h | – | – | – | – | 8.86
Caco-2 [2], 1 nM | – | – | 97.4 | – | –
Caco-2 [2], 10 nM | – | – | 96.6 | – | –
Caco-2 [2], 100 nM | – | – | 95.1 | – | –
Caco-2 [2], 1000 nM | – | – | 92.7 | – | –
Caco-2 [2], 10000 nM | – | – | 86.6 | – | –
Calu-3 [3], 1 nM | – | – | 112 | – | –
Calu-3 [3], 10 nM | – | – | 97.4 | – | –
Calu-3 [3], 100 nM | – | – | 100 | – | –
Calu-3 [3], 1000 nM | – | – | 99 | – | –
Calu-3 [3], 10000 nM | – | – | 98.9 | – | –
HepG2 [4], 1 nM | – | – | 107 | – | –
HepG2 [4], 10 nM | – | – | 107 | – | –
HepG2 [4], 100 nM | – | – | 94 | – | –
HepG2 [4], 1000 nM | – | – | 105 | – | –
HepG2 [4], 10000 nM | – | – | 70.8 | – | –
U2OS [5], 1 nM | – | – | 103 | – | –
U2OS [5], 10 nM | – | – | 97.7 | – | –
U2OS [5], 100 nM | – | – | 99.9 | – | –
U2OS [5], 1000 nM | – | – | 99.3 | – | –
U2OS [5], 10000 nM | – | – | 95.2 | – | –
Vero E6 [6], 1 nM | – | – | 101 | – | –
Vero E6 [6], 10 nM | – | – | 106 | – | –
Vero E6 [6], 100 nM | – | – | 101 | – | –
Vero E6 [6], 1000 nM | – | – | 107 | – | –
Vero E6 [6], 10000 nM | – | – | 97.5 | – | –
[1], 0.3 µM | – | 101 | – | – | –
[1], 3 µM | – | 108 | – | – | –
[1], 10 µM | – | 121 | – | – | –
[1], 30 µM | – | 102 | – | – | –
[7], 0.3 µM | 107 | – | – | – | –
[7], 3 µM | 91 | – | – | – | –
[7], 10 µM | 19 | – | – | – | –
[7], 30 µM | 17 | – | – | – | –
[10], 0.3 µM | – | – | – | -0.02 | –
[10], 3 µM | – | – | – | 0.15 | –
[10], 10 µM | – | – | – | 0.89 | –
[10], 30 µM | – | – | – | 0.58 | –

drug-induced phospholipidosis [%], A549-ACE2 [9]
Conditions | 0.3 µM | 0.833333 µM | 3.33333 µM | 6.66667 µM | 10 µM | 30 µM
24 h | -0.12 | -0.14 | 9.06 | 65.1 | 85.7 | 80.3
48 h | 2.35 | 2.68 | 8.06 | 52.9 | 83.5 | 117
72 h | 3.27 | 1.57 | 6.45 | 37.9 | 80.7 | 130

Conditions | drug sensitivity score | relative viability EC50 [µM]
Caco-2 [11] | – | > 10
Caco-2 [15] | 0.1 | –
Calu-3 [12] | – | > 10
Calu-3 [16] | 0 | –
HepG2 [17] | 1 | –
U2OS [13] | – | > 10
U2OS [18] | 0 | –
Vero E6 [14] | – | > 10
Vero E6 [19] | 0 | –

O=C(CCCN1CCC2(CC1)C(=O)NCN2c1ccccc1)c1ccc(F)cc1 [spiperone]
Conditions | SARS-CoV-2 infection rate, [7] [%] | cell count, [1] [%] | cell viability, Caco-2 [2] [%] | cell viability, Calu-3 [3] [%] | cell viability, HepG2 [4] [%] | cell viability, U2OS [5] [%] | cell viability, Vero E6 [6] [%] | morphology score, [10]
1 nM | – | – | 99.3 | 105 | 91.6 | 100 | 99.8 | –
10 nM | – | – | 92.7 | 84.1 | 108 | 96.6 | 103 | –
100 nM | – | – | 96.2 | 108 | 98.7 | 101 | 96.1 | –
0.3 µM | 102 | 99 | – | – | – | – | – | -0.22
1000 nM | – | – | 99.3 | 103 | 91.1 | 98.5 | 95.8 | –
3 µM | 86 | 114 | – | – | – | – | – | 0.32
10 µM | 31 | 97 | – | – | – | – | – | 0.19
10000 nM | – | – | 71.9 | 74.1 | 62.5 | 94.6 | 98.3 | –
30 µM | 35 | 77 | – | – | – | – | – | 0.03

drug-induced phospholipidosis [%], A549-ACE2 [9]
Conditions | 0.3 µM | 0.833333 µM | 3.33333 µM | 6.66667 µM | 10 µM | 30 µM
24 h | -1.11 | -1.19 | 0.56 | 7.38 | 19.1 | 21
48 h | 1.78 | -0.92 | 2.83 | 6.18 | 13.4 | –
72 h | 1.57 | -0.0916 | 2.59 | 6.4 | 14.9 | –

Conditions | drug sensitivity score | relative viability EC50 [µM]
Caco-2 [15] | 1.3 | –
Calu-3 [16] | 0.8 | –
HepG2 [17] | 3.2 | –
U2OS [13] | – | > 10
U2OS [18] | 0 | –
Vero E6 [14] | – | > 10
Vero E6 [19] | 0 | –

COc1cc2c(cc1OC)-c1c/c(=N\c3c(C)cc(C)cc3C)n(C)c(=O)n1CC2 [trequinsin]
Conditions | SARS-CoV-2 infection rate, [7] [%] | cell count, [1] [%] | cell viability, Caco-2 [2] [%] | cell viability, Calu-3 [3] [%] | cell viability, HepG2 [4] [%] | cell viability, U2OS [5] [%] | cell viability, Vero E6 [6] [%] | morphology score, [10]
1 nM | – | – | 97.5 | 102 | 102 | 96.8 | 92.2 | –
10 nM | – | – | 91.9 | 89.5 | 94.4 | 99.7 | 97.1 | –
100 nM | – | – | 97.2 | 94.3 | 102 | 97.6 | 97 | –
0.3 µM | 97 | 100 | – | – | – | – | – | 0.06
1000 nM | – | – | 97 | 100 | 92.8 | 99.6 | 92.7 | –
3 µM | 93 | 103 | – | – | – | – | – | 0.26
10 µM | 59 | 111 | – | – | – | – | – | 0.67
10000 nM | – | – | 86.4 | 85 | 84.1 | 95.5 | 89.1 | –
30 µM | 19 | 110 | – | – | – | – | – | 0.75

drug-induced phospholipidosis [%], A549-ACE2 [9]
Conditions | 0.3 µM | 0.833333 µM | 3.33333 µM | 6.66667 µM | 10 µM | 30 µM
24 h | 3.52 | 0.24 | 10.1 | 3.08 | 1.51 | 20.8
48 h | 3.24 | 1.48 | 5.48 | 3.57 | 5.51 | 32.1
72 h | 4.95 | 1.02 | 3.84 | 4.01 | 6.79 | –

Conditions | drug sensitivity score | relative viability EC50 [µM]
Caco-2 [11] | – | > 10
Caco-2 [15] | 0 | –
Calu-3 [12] | – | > 10
Calu-3 [16] | 0.2 | –
HepG2 [17] | 0.9 | –
HepG2 [20] | – | > 10
U2OS [13] | – | > 10
U2OS [18] | 0 | –
Vero E6 [14] | – | > 10
Vero E6 [19] | 0 | –
